Assay results reported in ChEMBL document CHEMBL4431304, “Myritonines A-C, Alkaloids from Myrioneuron tonkinensis Based on a Novel Hexacyclic Skeleton” (J Nat Prod, 2016).
Activity calls are given as the source filed them. The calls are words filed in the database; no cut-off is given here.

Columns and labels:
A549 = test: Cytotoxicity against human A549 cells assessed as reduction in cell viability after 48 hrs by MTT assay; format: functional, cell-based; conditions: A549, 48 h
HL-60 = test: Cytotoxicity against human HL60 cells assessed as reduction in cell viability after 48 hrs by MTT assay; format: functional, cell-based; conditions: HL-60, 48 h
MCF7 = test: Cytotoxicity against human MCF7 cells assessed as reduction in cell viability after 48 hrs by MTT assay; format: functional, cell-based; conditions: MCF7, 48 h
SMMC-7721 = test: Cytotoxicity against human SMMC7721 cells assessed as reduction in cell viability after 48 hrs by MTT assay; format: functional, cell-based; conditions: SMMC-7721, 48 h
SW480 = test: Cytotoxicity against human SW480 cells assessed as reduction in cell viability after 48 hrs by MTT assay; format: functional, cell-based; conditions: SW480, 48 h
Hepatitis C virus = test: Antiviral activity against HCV infected in human Huh7.5 cells assessed as decrease in viral RNA level after 72 hrs by RT-PCR method; format: functional, organism-based; conditions: Hepacivirus hominis
[1] = Therapeutic index, ratio of CC50 for human Huh7.5 cells to EC50 for Hepatitis C virus; format: toxicity; conditions: read-out: Ratio CC50/EC50

| SMILES | IC50 (A549) | IC50 (HL-60) | IC50 (MCF7) | IC50 (SMMC-7721) | IC50 (SW480) | Activity (Hepatitis C virus) | selectivity ratio [1] |
| --- | --- | --- | --- | --- | --- | --- | --- |
| N#C[C@@H]1N2CCC[C@H]3[C@@H]4CCCCN4[C@@H]4CC[C@H]5CCC[C@]1(O)[C@@H]5N4[C@@H]32 | > 10 µM | > 10 µM | > 10 µM | > 10 µM | > 10 µM | – | – |
| C1C[C@H]2CC[C@H]3N4CCCC[C@H]4[C@@H]4CCCN5C[C@@H](C1)[C@H]2N3[C@@H]45 | > 10 µM | > 10 µM | > 10 µM | > 10 µM | > 10 µM | Active | > 12 |
| O=C1[C@H]2CCC[C@H]3CC[C@H]4N5CCCC[C@H]5[C@@H]5CCCN1[C@H]5N4[C@@H]32 | > 10 µM | > 10 µM | > 10 µM | > 10 µM | > 10 µM | Active | > 11 |
